Laboratory results from article PMC10893631, “Receptor-based pharmacophore modeling, molecular docking, synthesis and biological evaluation of novel VEGFR-2, FGFR-1, and BRAF multi-kinase inhibitors” (BMC Chemistry, 2024).

Tests used:
Experiment in all cases: NCI SRB growth inhibition (single dose 10 µM / five-dose)
Format in all cases: cell-based, human
SK-MEL-28 = details: Homo sapiens; for inhibition at 10 µM: SK-MEL-28 (Melanoma), read-out: GI%
Procedure, shortened: (§1)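 Test agents were dissolved in DMSO at 400-fold the top final concentration, diluted in medium with 50 µg/mL gentamicin, and tested at five concentrations.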

HCT-15 = details: Homo sapiens; for inhibition at 10 µM: HCT-15 (Colon cancer), read-out: GI%
Procedure, shortened: as §1

UO-31 = details: Homo sapiens; for inhibition at 10 µM: UO-31 (Renal cancer), read-out: GI%
Procedure, shortened: as §1

PC-3 = details: Homo sapiens; for inhibition at 10 µM: PC-3 (Prostate cancer), read-out: GI%
Procedure, shortened: as §1

SK-MEL-5 = details: Homo sapiens; for inhibition at 10 µM: SK-MEL-5 (Melanoma), read-out: GI%
Procedure, shortened: as §1

T-47D = details: Homo sapiens, T47D; for inhibition at 10 µM: T-47D (Breast cancer), read-out: GI%
Procedure, shortened: as §1

NCI-H23 = details: Homo sapiens; for inhibition at 10 µM: NCI-H23 (Non-small cell lung cancer), read-out: GI%
Procedure, shortened: as §1

NCI-H226 = details: Homo sapiens; for inhibition at 10 µM: NCI-H226 (Non-small cell lung cancer), read-out: GI%
Procedure, shortened: as §1

SF-539 = details: Homo sapiens; for inhibition at 10 µM: SF-539 (CNS cancer), read-out: GI%
Procedure, shortened: as §1

SNB-19 = details: Homo sapiens; for inhibition at 10 µM: SNB-19 (CNS cancer), read-out: GI%
Procedure, shortened: as §1

HS 578 T = details: Homo sapiens; for inhibition at 10 µM: HS 578 T (Breast cancer), read-out: GI%
Procedure, shortened: as §1

786–0 = details: Homo sapiens; 786–0 (Renal cancer), 10 µM; read-out: GI%
Procedure, shortened: as §1

MOLT-4 = details: Homo sapiens; for inhibition at 10 µM: MOLT-4 (Leukemia), read-out: GI%
Procedure, shortened: as §1

A498 = details: Homo sapiens; for inhibition at 10 µM: A498 (Renal cancer), read-out: GI%
Procedure, shortened: as §1

SW-620 = details: Homo sapiens; for inhibition at 10 µM: SW-620 (Colon cancer), read-out: GI%
Procedure, shortened: as §1

MALME-3 M = details: Homo sapiens; for inhibition at 10 µM: MALME-3 M (Melanoma), read-out: GI%
Procedure, shortened: as §1

HL-60(TB) = details: Homo sapiens; for inhibition at 10 µM: HL-60(TB) (Leukemia), read-out: GI%
Procedure, shortened: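 SRB protein stain of fixed cells; compounds tested at one dose (10 µM) or five serial dilutions (10-fold or ½ log), diluted from DMSO stock. Cells plated 24 h before dosing, with a time-zero plate fixed in TCA. Percent growth derived from Tz, control and test absorbances; TGI taken where Ti = Tz.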

U251 = details: Homo sapiens, U-251; for inhibition at 10 µM: U251 (CNS cancer), read-out: GI%
Procedure, shortened: as §1

UACC-62 = details: Homo sapiens; for inhibition at 10 µM: UACC-62 (Melanoma), read-out: GI%
Procedure, shortened: as §1

MDA-MB-468 = details: Homo sapiens; for inhibition at 10 µM: MDA-MB-468 (Breast cancer), read-out: GI%
Procedure, shortened: as §1

OVCAR-5 = details: Homo sapiens; for inhibition at 10 µM: OVCAR-5 (Ovarian cancer), read-out: GI%
Procedure, shortened: as §1

KM12 = details: Homo sapiens; for inhibition at 10 µM: KM12 (Colon cancer), read-out: GI%
Procedure, shortened: as §1

MDA-MB-231/ATCC = details: Homo sapiens; for inhibition at 10 µM: MDA-MB-231/ATCC (Breast cancer), read-out: GI%
Procedure, shortened: as §1

MCF7 = details: Homo sapiens; for inhibition at 10 µM: MCF7 (Breast cancer), read-out: GI%
Procedure, shortened: as §1

SF-268 = details: Homo sapiens; for inhibition at 10 µM: SF-268 (CNS cancer), read-out: GI%
Procedure, shortened: as §1

RXF 393 = details: Homo sapiens; for inhibition at 10 µM: RXF 393 (Renal cancer), read-out: GI%
Procedure, shortened: as §1

COc1ccc(-c2nc3cc(C(=O)NN=Cc4ccc(OC)c(O)c4)ccc3[nH]2)cc1 [8l, N'-(3-Hydroxy-4-methoxybenzylidene)-2-(4-methoxyphenyl)-1H-benzo[d]imidazole-5-carbohydrazide] gave an inhibition at 10 µM (SK-MEL-28) of 52.5%, an inhibition at 10 µM (HCT-15) of less than 5% and an inhibition at 10 µM (UO-31) of 9.13%. For the same compound, the inhibition at 10 µM (PC-3) was 51.2%, the inhibition at 10 µM (SK-MEL-5) was 55.3% and the inhibition at 10 µM (T-47D) was 52.5%. It also gave an inhibition at 10 µM (NCI-H23) of 24%, an inhibition at 10 µM (NCI-H226) of 24.5% and an inhibition at 10 µM (SF-539) of 42.6%. For the same compound, the inhibition at 10 µM (SNB-19) was 16.1%, the inhibition at 10 µM (HS 578 T) was 46.2% and the inhibition at 10 µM (786–0) was 18.1%. It also gave an inhibition at 10 µM (MOLT-4) of 78.6%, an inhibition at 10 µM (A498) of less than 5% and an inhibition at 10 µM (SW-620) of 21.8%. For the same compound, the inhibition at 10 µM (MALME-3 M) was 87.6%, the inhibition at 10 µM (HL-60(TB)) was 52.2% and the inhibition at 10 µM (U251) was 44.8%. For the same compound, the inhibition at 10 µM (UACC-62) was 47.6%, the inhibition at 10 µM (MDA-MB-468) was 44.4% and the inhibition at 10 µM (OVCAR-5) was less than 5%. For the same compound, the inhibition at 10 µM (KM12) was 34.5%, the inhibition at 10 µM (MDA-MB-231/ATCC) was 26.4% and the inhibition at 10 µM (MCF7) was 77.8%. For the same compound, the inhibition at 10 µM (SF-268) was 40.4% and the inhibition at 10 µM (RXF 393) was 37.2%.

Work on COc1ccc(-c2nc3cc(C(=O)NN=Cc4ccccc4O)ccc3[nH]2)cc1 [8h, N'-(2-Hydroxybenzylidene)-2-(4-methoxyphenyl)-1H-benzo[d]imidazole-5-carbohydrazide] yielded an inhibition at 10 µM (SK-MEL-28) greater than 100%, a GI50 (SK-MEL-28; SK-MEL-28, Melanoma, five-dose) of 2960 nM and an inhibition at 10 µM (HCT-15) greater than 100%. It also gave a GI50 (HCT-15; HCT-15, Colon cancer, five-dose) of 1250 nM, an inhibition at 10 µM (UO-31) greater than 100% and a GI50 (UO-31; UO-31, Renal cancer, five-dose) of 1700 nM. The inhibition at 10 µM (PC-3) was greater than 100%, the GI50 (PC-3; PC-3, Prostate cancer, five-dose) was 1770 nM and the inhibition at 10 µM (SK-MEL-5) was greater than 100%. The GI50 (SK-MEL-5; SK-MEL-5, Melanoma, five-dose) was 1730 nM, the inhibition at 10 µM (T-47D) was greater than 100% and the GI50 (T-47D; T-47D, Breast cancer, five-dose) was 2600 nM. For the same compound, the inhibition at 10 µM (NCI-H23) was 94.6%, the GI50 (NCI-H23; NCI-H23, Non-small cell lung cancer, five-dose) was 2060 nM and the inhibition at 10 µM (NCI-H226) was greater than 100%. For the same compound, the GI50 (NCI-H226; NCI-H226, Non-small cell lung cancer, five-dose) was 6940 nM, the inhibition at 10 µM (SF-539) was greater than 100% and the GI50 (SF-539; SF-539, CNS cancer, five-dose) was 2050 nM. It also gave an inhibition at 10 µM (SNB-19) greater than 100%, a GI50 (SNB-19; SNB-19, CNS cancer, five-dose) of 1760 nM and an inhibition at 10 µM (HS 578 T) greater than 100%. It also gave a GI50 (HS 578 T; HS 578 T, Breast cancer, five-dose) of 940 nM, an inhibition at 10 µM (786–0) greater than 100% and an inhibition at 10 µM (MOLT-4) of 88.5%. It also gave a GI50 (MOLT-4; MOLT-4, Leukemia, five-dose) of 1700 nM, an inhibition at 10 µM (A498) of 54.5% and a GI50 (A498; A498, Renal cancer, five-dose) of 9210 nM. The inhibition at 10 µM (SW-620) was greater than 100%, the GI50 (SW-620; SW-620, Colon cancer, five-dose) was 1750 nM and the inhibition at 10 µM (MALME-3 M) was greater than 100%. It also gave a GI50 (MALME-3 M; MALME-3 M, Melanoma, five-dose) of 1770 nM, an inhibition at 10 µM (HL-60(TB)) of 82.9% and a GI50 (HL-60(TB); HL-60(TB), Leukemia, five-dose) of 2090 nM. For the same compound, the inhibition at 10 µM (U251) was greater than 100%, the GI50 (U251; U251, CNS cancer, five-dose) was 1640 nM and the inhibition at 10 µM (UACC-62) was greater than 100%. It also gave a GI50 (UACC-62; UACC-62, Melanoma, five-dose) of 2530 nM, an inhibition at 10 µM (MDA-MB-468) greater than 100% and a GI50 (MDA-MB-468; MDA-MB-468, Breast cancer, five-dose) of 2980 nM. The inhibition at 10 µM (OVCAR-5) was greater than 100%, the GI50 (OVCAR-5; OVCAR-5, Ovarian cancer, five-dose) was 6550 nM and the inhibition at 10 µM (KM12) was greater than 100%. It also gave a GI50 (KM12; KM12, Colon cancer, five-dose) of 4240 nM, an inhibition at 10 µM (MDA-MB-231/ATCC) of 98.7% and a GI50 (MDA-MB-231/ATCC; MDA-MB-231/ATCC, Breast cancer, five-dose) of 4480 nM. It also gave an inhibition at 10 µM (MCF7) greater than 100%, a GI50 (MCF7; MCF7, Breast cancer, five-dose) of 1670 nM and an inhibition at 10 µM (SF-268) greater than 100%. For the same compound, the GI50 (SF-268; SF-268, CNS cancer, five-dose) was 920 nM, the inhibition at 10 µM (RXF 393) was greater than 100% and the GI50 (RXF 393; RXF 393, Renal cancer, five-dose) was 6290 nM.

Work on O=C(NN=Cc1cccc(O)c1)c1ccc2[nH]c(-c3ccccc3)nc2c1 [8b, N'-(3-Hydroxybenzylidene)-2-phenyl-1H-benzo[d]imidazole-5-carbohydrazide] yielded an inhibition at 10 µM (SK-MEL-28) of less than 5%, an inhibition at 10 µM (HCT-15) of less than 5% and an inhibition at 10 µM (UO-31) of 21.6%. The inhibition at 10 µM (PC-3) was 11.8%, the inhibition at 10 µM (SK-MEL-5) was 10.9% and the inhibition at 10 µM (T-47D) was 50.9%. The inhibition at 10 µM (NCI-H23) was less than 5%, the inhibition at 10 µM (NCI-H226) was less than 5% and the inhibition at 10 µM (SF-539) was 13.7%. For the same compound, the inhibition at 10 µM (SNB-19) was less than 5%, the inhibition at 10 µM (HS 578 T) was less than 5% and the inhibition at 10 µM (786–0) was 5.43%. The inhibition at 10 µM (MOLT-4) was 31.5%, the inhibition at 10 µM (A498) was less than 5% and the inhibition at 10 µM (SW-620) was less than 5%. It also gave an inhibition at 10 µM (MALME-3 M) of 39.7%, an inhibition at 10 µM (HL-60(TB)) of 14.4% and an inhibition at 10 µM (U251) of less than 5%. The inhibition at 10 µM (UACC-62) was less than 5%, the inhibition at 10 µM (MDA-MB-468) was 18.9% and the inhibition at 10 µM (OVCAR-5) was less than 5%. For the same compound, the inhibition at 10 µM (KM12) was 19.8%, the inhibition at 10 µM (MDA-MB-231/ATCC) was 14.1% and the inhibition at 10 µM (MCF7) was 43.1%. It also gave an inhibition at 10 µM (SF-268) of 16.8% and an inhibition at 10 µM (RXF 393) of less than 5%.
